Measured values reported in ChEMBL document CHEMBL4811304, “Design, synthesis and biological evaluation of dual mTOR/HDAC6 inhibitors in MDA-MB-231 cells” (Bioorg Med Chem Lett, 2021).
Activity calls are given as the source filed them. The calls are words filed in the database; no cut-off is given here.

Key:
[1] = target: Serine/threonine-protein kinase mTOR (Homo sapiens, UniProt P42345); test: Inhibition of mTOR (unknown origin)
MDA-MB-231 [2] = test: Induction of apoptosis in human MDA-MB-231 cells assessed as necrotic cells at 5 uM by annexin V/propidium iodide staining-based flow cytometry analysis (reference value: 0.099 %); assay type: functional
MDA-MB-231 [3] = test: Induction of apoptosis in human MDA-MB-231 cells assessed as increase in caspase 8 cleavage at 5 to 20 uM by Western blot analysis; assay type: functional, cell-based; details: dose 5-20 µM
MDA-MB-231 [4] = test: Induction of apoptosis in human MDA-MB-231 cells assessed as late apoptotic cells at 5 uM by annexin V/propidium iodide staining-based flow cytometry analysis (reference value: 2.34 %); assay type: functional
MDA-MB-231 [5] = test: Inhibition of cell migration in human MDA-MB-231 cells after 48 hrs by wound healing assay; assay type: functional, cell-based; details: dose 5-20 µM
Histone deacetylase 2 = Histone deacetylase 2 (Homo sapiens, UniProt Q92769); test: Binding affinity to HDAC2 in human MDA-MB-231 cells assessed as increase in thermal stability at 10 uM measured at 6 hrs by CETSA; assay type: cell-based
Histone deacetylase 2, sequence (Q92769 whole entry): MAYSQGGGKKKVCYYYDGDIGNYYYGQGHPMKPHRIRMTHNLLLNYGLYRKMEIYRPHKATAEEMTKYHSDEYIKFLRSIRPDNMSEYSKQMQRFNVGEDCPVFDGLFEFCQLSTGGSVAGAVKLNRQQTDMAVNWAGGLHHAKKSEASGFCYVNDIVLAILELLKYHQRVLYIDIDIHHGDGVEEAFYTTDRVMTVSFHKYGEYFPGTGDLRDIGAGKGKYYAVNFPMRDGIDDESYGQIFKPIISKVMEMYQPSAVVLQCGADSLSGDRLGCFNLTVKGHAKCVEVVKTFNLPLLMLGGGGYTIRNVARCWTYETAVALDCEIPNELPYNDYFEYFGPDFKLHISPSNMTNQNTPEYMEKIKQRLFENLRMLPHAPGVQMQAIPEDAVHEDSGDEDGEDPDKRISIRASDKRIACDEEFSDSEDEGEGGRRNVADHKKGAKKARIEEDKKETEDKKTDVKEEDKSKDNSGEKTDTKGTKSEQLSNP

MDA-MB-231 [6] = test: Induction of apoptosis in human MDA-MB-231 cells by annexin V/propidium iodide staining-based flow cytometry analysis; assay type: functional, cell-based; details: dose 5-20 µM
MDA-MB-231 [7] = test: Inhibition of cell migration in human MDA-MB-231 cells assessed as decrease in MMP-2 expression at 5 to 20 uM after 48 hrs by Western blot analysis; assay type: functional, cell-based; details: dose 5-20 µM
MDA-MB-231 [8] = test: Induction of apoptosis in human MDA-MB-231 cells assessed as necrotic cells at 20 uM by annexin V/propidium iodide staining-based flow cytometry analysis (reference value: 0.099 %); assay type: functional
MDA-MB-231 [9] = test: Induction of apoptosis in human MDA-MB-231 cells assessed as downregulation of Bcl-2 at 5 to 20 uM by Western blot analysis; assay type: functional, cell-based; details: dose 5-20 µM
MDA-MB-231 [10] = test: Induction of apoptosis in human MDA-MB-231 cells assessed as late apoptotic cells at 20 uM by annexin V/propidium iodide staining-based flow cytometry analysis (reference value: 2.34 %); assay type: functional
MDA-MB-231 [11] = test: Antiproliferative activity against human MDA-MB-231 cells measured after 48 hrs; assay type: functional, cell-based; details: MDA-MB-231, 48 h
Histone deacetylase 3 = Histone deacetylase 3 (Homo sapiens, UniProt O15379); test: Binding affinity to HDAC3 in human MDA-MB-231 cells assessed as increase in thermal stability at 10 uM measured at 6 hrs by CETSA; assay type: cell-based
Histone deacetylase 3, sequence (O15379 whole entry): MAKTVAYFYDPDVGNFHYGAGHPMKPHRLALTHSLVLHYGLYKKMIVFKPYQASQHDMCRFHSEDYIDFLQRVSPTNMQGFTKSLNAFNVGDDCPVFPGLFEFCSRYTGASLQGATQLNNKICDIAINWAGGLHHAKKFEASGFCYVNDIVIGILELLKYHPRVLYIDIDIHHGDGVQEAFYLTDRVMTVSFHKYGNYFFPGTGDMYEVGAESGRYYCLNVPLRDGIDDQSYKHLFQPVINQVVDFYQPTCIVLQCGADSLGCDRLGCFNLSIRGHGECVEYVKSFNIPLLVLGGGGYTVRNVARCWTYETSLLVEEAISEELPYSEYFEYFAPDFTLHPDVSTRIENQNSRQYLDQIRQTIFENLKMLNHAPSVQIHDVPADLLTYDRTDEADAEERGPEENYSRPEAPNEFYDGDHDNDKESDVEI

MDA-MB-231 [12] = test: Antiproliferative activity against human MDA-MB-231 cells assessed as inhibition of clone formation at 2.5 to 10 uM; assay type: functional, cell-based; details: dose 2.5-10 µM
MCF-10A = test: Cytotoxicity against human MCF-10A cells assessed as increase in cell viability; assay type: cell-based
Histone deacetylase 1 = Histone deacetylase 1 (Homo sapiens, UniProt Q13547); test: Inhibition of HDAC1 (unknown origin)
Histone deacetylase 1, sequence (Q13547 whole entry): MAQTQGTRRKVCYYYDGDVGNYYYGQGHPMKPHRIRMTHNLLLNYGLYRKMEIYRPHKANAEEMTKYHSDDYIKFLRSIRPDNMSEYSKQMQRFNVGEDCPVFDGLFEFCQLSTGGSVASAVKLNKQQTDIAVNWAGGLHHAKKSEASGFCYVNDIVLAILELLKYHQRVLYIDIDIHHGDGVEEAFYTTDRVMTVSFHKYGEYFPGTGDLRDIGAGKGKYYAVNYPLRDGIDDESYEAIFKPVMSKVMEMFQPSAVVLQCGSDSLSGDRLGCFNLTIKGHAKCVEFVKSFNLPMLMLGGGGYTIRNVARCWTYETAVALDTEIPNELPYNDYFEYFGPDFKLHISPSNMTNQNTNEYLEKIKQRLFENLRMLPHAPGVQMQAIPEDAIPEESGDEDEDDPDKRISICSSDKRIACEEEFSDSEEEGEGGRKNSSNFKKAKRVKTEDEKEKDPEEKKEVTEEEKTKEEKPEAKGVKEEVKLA

MDA-MB-231 [13] = test: Inhibition of cell migration in human MDA-MB-231 cells after 48 hrs by transwell assay; assay type: functional, cell-based; details: dose 5-20 µM
[14] = Solubility of the compound; assay type: physicochemical
MDA-MB-231 [15] = test: Induction of autophagy in human MDA-MB-231 cells transfected with GFP-LC3 assessed as decrease in SQSTM1/p62 expression at 5 to 20 uM after 48 hrs by Western blot analysis; assay type: functional, cell-based; details: dose 5-20 µM
MDA-MB-231 [16] = test: Inhibition of cell migration in human MDA-MB-231 cells assessed as increase in E-cadherin expression at 5 to 20 uM after 48 hrs by Western blot analysis; assay type: functional, cell-based; details: dose 5-20 µM
MDA-MB-231 [17] = test: Induction of apoptosis in human MDA-MB-231 cells assessed as upregulation of BAX at 5 to 20 uM by Western blot analysis; assay type: functional, cell-based; details: dose 5-20 µM
MDA-MB-231 [18] = test: Induction of apoptosis in human MDA-MB-231 cells assessed as necrotic cells at 10 uM by annexin V/propidium iodide staining-based flow cytometry analysis (reference value: 0.099 %); assay type: functional
[19] = target: T1, Protein deacetylase HDAC6 (Homo sapiens) (UniProt Q9UBN7); test: Inhibition of HDAC6 in human MDA-MB-231 cells assessed as increase in acetylated lysine at 5 to 20 uM by Western blot analysis; assay type: cell-based; details: dose 5-20 µM
T1 sequence (whole entry): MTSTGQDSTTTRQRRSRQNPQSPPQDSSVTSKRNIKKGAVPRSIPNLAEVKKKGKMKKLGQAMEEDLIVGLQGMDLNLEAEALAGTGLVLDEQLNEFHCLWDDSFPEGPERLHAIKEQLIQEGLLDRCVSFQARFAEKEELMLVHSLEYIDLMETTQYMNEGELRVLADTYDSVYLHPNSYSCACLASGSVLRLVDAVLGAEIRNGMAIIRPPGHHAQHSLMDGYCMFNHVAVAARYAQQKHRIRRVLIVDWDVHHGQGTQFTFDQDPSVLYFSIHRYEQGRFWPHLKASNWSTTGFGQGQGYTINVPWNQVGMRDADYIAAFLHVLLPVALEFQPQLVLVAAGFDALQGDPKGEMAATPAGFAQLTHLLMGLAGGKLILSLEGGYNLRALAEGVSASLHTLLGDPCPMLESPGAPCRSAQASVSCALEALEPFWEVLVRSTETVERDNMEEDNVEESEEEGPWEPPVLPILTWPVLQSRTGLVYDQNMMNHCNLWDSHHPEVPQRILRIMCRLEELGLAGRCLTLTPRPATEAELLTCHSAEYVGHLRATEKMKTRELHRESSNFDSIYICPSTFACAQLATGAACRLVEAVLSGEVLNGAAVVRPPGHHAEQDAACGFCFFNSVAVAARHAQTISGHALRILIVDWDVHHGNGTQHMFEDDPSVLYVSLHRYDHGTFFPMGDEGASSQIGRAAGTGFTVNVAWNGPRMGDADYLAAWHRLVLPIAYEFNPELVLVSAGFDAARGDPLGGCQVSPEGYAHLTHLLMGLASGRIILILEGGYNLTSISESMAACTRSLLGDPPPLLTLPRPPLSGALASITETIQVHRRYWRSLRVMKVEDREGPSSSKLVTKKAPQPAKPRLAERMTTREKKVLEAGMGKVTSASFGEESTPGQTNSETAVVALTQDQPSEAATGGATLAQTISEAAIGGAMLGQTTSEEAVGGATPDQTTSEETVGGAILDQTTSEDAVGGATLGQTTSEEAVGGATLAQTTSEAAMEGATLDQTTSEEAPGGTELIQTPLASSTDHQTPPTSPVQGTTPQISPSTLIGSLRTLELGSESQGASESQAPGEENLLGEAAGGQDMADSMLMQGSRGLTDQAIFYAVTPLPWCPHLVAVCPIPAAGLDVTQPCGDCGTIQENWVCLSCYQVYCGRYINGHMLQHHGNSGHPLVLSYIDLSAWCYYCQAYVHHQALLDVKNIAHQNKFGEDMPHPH

MDA-MB-231 [20] = test: Induction of autophagy in human MDA-MB-231 cells transfected with GFP-LC3 assessed as increase in LC3II level at 5 to 20 uM after 48 hrs by Western blot analysis; assay type: functional, cell-based; details: dose 5-20 µM
[21] = target: T2, Protein deacetylase HDAC6 (Homo sapiens, UniProt Q9UBN7); test: Inhibition of HDAC6 (unknown origin)
T2 sequence (Q9UBN7 whole entry): T1 sequence (whole entry)

IC50 [1]: 134 nM | Activity (Histone deacetylase 2): inactive | IC50 (MDA-MB-231 [11]): 8400 nM | Activity (Histone deacetylase 3): inactive | IC50 (Histone deacetylase 1): 359 nM | solubility [14]: Insoluble | inhibition [19]: Active | IC50 [21]: 56 nM
SMILES: CN1CCN(c2nc(-c3ccc(C(=O)NO)cc3)nc3cc(Cl)ccc23)CC1
Activity (MDA-MB-231 [2]): 0.64% | Activity (MDA-MB-231 [3]): Active | Activity (MDA-MB-231 [4]): 6.39% | inhibition (MDA-MB-231 [5]): Active | Activity (MDA-MB-231 [6]): Dose-Dependent Effect | inhibition (MDA-MB-231 [7]): Active | Activity (MDA-MB-231 [8]): 0.46% | Activity (MDA-MB-231 [9]): Active | Activity (MDA-MB-231 [10]): 34.3% | inhibition (MDA-MB-231 [12]): Active | Activity (MCF-10A): Non-Toxic | inhibition (MDA-MB-231 [13]): Active | Activity (MDA-MB-231 [15]): Active | inhibition (MDA-MB-231 [16]): Active | Activity (MDA-MB-231 [17]): Active | Activity (MDA-MB-231 [18]): 0.49% | Activity (MDA-MB-231 [20]): Active
